Literature values in US20250177439A1, “LOW DOSE PRE-MIX FEED FOR TRACE MINERAL SUPPLEMENTATION” (Chemlock Operating LLC d/b/a Chemlock Nutrition, priority 2023, published 2025).

Details: 105-140 ppm zinc compared to 132-177 pmm of zinc

In the case of “Zinc chloride hydroxide monohydrate [zinc hydroxy chloride]”, the skin strength is listed as “enhanced the skin strength”.
